Data: US20110184017A1, “STABLE AQUEOUS SOLUTION COMPOSITION CONTAINING SULFONAMIDE COMPOUND” (ASAHI KASEI PHARMA CORPORATION, priority 2008, published 2011)
“Also recorded” adds a separate entry of the source.

Experiments:
Japanese white rabbits = assay: Rabbit intraocular pressure reduction test; type: in vivo; conditions: FIG. 1
Experimental: In order to examine difference in the intraocular pressure reducing effect depending on a different pH of (S)-1-(4-chloro-5-isoquinolinesulfonyl)-3-(methylamino)pyrrolidine solution, the following test was performed by using Japanese white rabbits as experimental animals.
(S)-1-(4-Chloro-5-isoquinolinesulfonyl)-3-(methylamino)pyrrolidine hydrochloride obtained by the method described in International Patent Publication WO2007/026664 was dissolved in physiological saline, the solution was adjusted to pH 4, 5, 6, 7, 8 and 9 by adding sodium hydroxide, and the final concentration was adjusted to 0.5 mM. These solutions were used as (S)-1-(4-chloro-5-isoquinolinesulfonyl)-3-(methylamino)pyrrolidine solutions having different pH values.
The rabbits used were sufficiently conditioned for ophathalmic tonometry test, and used as groups each consisting of 6 animals. After a Benoxil ophthalmic solution 0.4% (an ophthalmologic local anesthesant, Santen Pharmaceutical Co., Ltd.) was applied to both eyes of each rabbit, intraocular pressure value before instillation was measured (initial intraocular pressure value, both right and left eyes) by using an ophathalmic tonometer (Model 30 Classic, Solan). […] After 2, 4, and 6 hours from the instillation, each rabbit was topically anesthetized with the an ophthalmologic local anesthesant, and intraocular pressure values of the both eyes were measured. […]

Photostability test = type: physicochemical; conditions: aqueous solution; estimated from similar absorption spectrum
Experimental: In the following test, LT-120D3CJ (Nagano Science Co., Ltd.) was used as a photostability tester. Purity of (S)-1-(4-chloro-5-isoquinolinesulfonyl)-3-(methylamino)pyrrolidine in the samples of the examples and the comparative example was measured by the liquid chromatography method described in Test Example 2.
The samples of Example 5 and Comparative Example 3 were subjected to light irradiation at 5,000 lux for ten days […] at 25° C. by using a D65 daylight fluorescent lamp installed in the photostability tester. As the photostability tester, an apparatus was used that was capable of uniformly irradiating the samples with light by turning a table. The illumination was 5,000 lux, and 1,200,000 lux·hr in total was irradiated over ten days. The accumulated near-ultraviolet energy during the photostability test was 474 to 488 W·h/m^2.
2) Purities of (S)-1-(4-chloro-5-isoquinolinesulfonyl)-3-(methylamino)pyrrolidine in the solutions of the light-irradiated samples were compared with that of a sample stored at 5° C. in a dark place.

SMILES | intraocular pressure reducing action (Japanese white rabbits; 0.5 mM solutions adjusted to pH 4, 5, 6, 7, 8 and 9, instillation to normal rabbits, 2, 4 and 6 hours) | intraocular pressure reducing action (Japanese white rabbits; 0.5 mM solutions at pH 7 to 9, instillation to rabbits) | photostability properties compared with the (methylamino)pyrrolidine compound (Photostability test)
CN[C@H]1CCN(S(=O)(=O)c2cccc3cncc(Cl)c23)C1 [(S)-1-(4-chloro-5-isoquinolinesulfonyl)-3-(methylamino)pyrrolidine] | more strongly exhibited when a pH became higher in the range of pH 4 to 9; also recorded: became higher in a pH-dependent manner | strongly exhibited | –
N[C@H]1CCN(S(=O)(=O)c2cccc3cncc(Cl)c23)C1 [(S)-1-(4-chloro-5-isoquinolinesulfonyl)-3-aminopyrrolidine] | – | – | similar
